Assay results from patent US7468377B2, “Imidazopyridine-derivatives as inductible no-synthase inhibitors” (Altana Pharma AG, priority 2003, dated 2008).

Experiments:
[1] = biological target: human inducible NO-synthase (Homo sapiens, UniProt P35228); assay: Measurement of inducible NO-synthase activity ([3H]arginine conversion); format: biochemical; conditions: crude cytosolic fraction containing human inducible NO-synthase; 0.1 μM arginine; 45 to 60 min at 37° C; read-out: Inhibition of iNOS activity [measured as −logIC50 (mol/l)] (converted)
Procedure: Measurement of Inducible NO-Synthase Activity
The assay is performed in 96-well microtiter F-plates (Greiner, Frickenhausen, FRG) in a total volume of 100 μl in the presence of 100 nM calmodulin, 226 μM CaCl2, 477 μM MgCl2, 5 μM flavin-adenine-dinucleotide (FAD), 5 μM flavin mononucleotide (FMN), 0.1 mM NADPH, 7 mM glutathione, 10 μM BH4 and 100 mM HEPES pH 7.2. Arginine concentrations are 0.1 μM for enzyme inhibition experiments. 150000 dpm of [^3H]arginine are added to the assay mixture. Enzyme reaction is started by the addition of 4 μg of a crude cytosolic fraction containing human inducible NO-synthase and the reaction mixture is incubated for 45 to 60 min at 37° C. Enzyme reaction is stopped by adding 10 μl of 2M MES-buffer pH 5,0. 50 μl of the incubation mixture are transferred into a MADP N65 filtration microtiter plate (Millipore, Eschborn, FRG) containing already 50 μl of AG-50W-X8 cation exchange resin (Biorad, München, FRG). The resin in the Na loaded form is preequilibrated in water and 70 μl (corresponding to 50 μl dry beads) are pipetted under heavy stirring with a 8 channel pipette into the filtration plate. After pipetting 50 μl of the enzyme reaction mixture onto the filtration plates, the plates are placed on a filtration manifold (Porvair, Shepperton, UK) and the flow through is collected in Pico scintillation plates (Packard, Meriden, Conn.). The resin in the filtration plates is washed with 75 μl of water (1×50 μl and 1×25 μl) which is also collected in the same plate as the sample. The total flow through of 125 μl is mixed with 175 μl of Microscint-40 scintillation cocktail (Packard) and the scintillation plate is sealed with TopSeal P-foil (Packard). Scintillation plates are counted in a szintillation counter.
For the measurement of inducible NO-synthase-inhibiting potencies of compounds increasing concentrations of inhibitors were included into the incubation mixture. IC50-values were calculated from the percent inhibition at given concentrations by nonlinear least square fitting.
The inhibitory values determined for the compounds according to the invention follow from the following table A, in which the compound numbers correspond to the example numbers.

Compound	melting point	IC50 [1]
COc1ccnc(CCc2nc3cc(-c4ccc(S(=O)(=O)N(C)C)cc4)cnc3[nH]2)c1 [compound 1, 4-{2-[2-(4-Methoxypyridin-2-yl)ethyl]-3H-imidazo[4,5-b]pyridin-6-yl}-N,N-dimethyl-benzenesulfonamide]	217 to 218 °C	14.8 nM
CCN(CC)S(=O)(=O)c1ccc(-c2cnc3[nH]c(CCc4cc(OC)ccn4)nc3c2)cc1 [compound 2, N,N-Diethyl-4-{2-[2-(4-methoxypyridin-2-yl)ethyl]-3H-imidazo-[4,5-b]pyridin-6-yl}benzenesulfonamide]	127 to 129 °C	35.5 nM
CNS(=O)(=O)c1ccc(-c2cnc3[nH]c(CCc4cc(OC)ccn4)nc3c2)cc1 [compound 3, 4-{2-[2-(4-Methoxypyridin-2-yl)ethyl]-3H-imidazo[4,5-b]pyridin-6-yl}-N-methyl-benzenesulfonamide]	225 to 227 °C	13.8 nM
COc1ccnc(CCc2nc3cc(-c4ccc(S(N)(=O)=O)cc4)cnc3[nH]2)c1 [compound 4, 4-{2-[2-(4-Methoxypyridin-2-yl)ethyl]-3H-imidazo[4,5-b]pyridin-6-yl}-benzenesulfonamide]	216 to 218 °C	14.8 nM

The next lines start with the values.

melting point	IC50 [1]	Compound
214 to 216 °C	24 nM	CCNS(=O)(=O)c1ccc(-c2cnc3[nH]c(CCc4cc(OC)ccn4)nc3c2)cc1 [compound 5, N-Ethyl-4-{2-[2-(4-methoxypyridin-2-yl)ethyl]-3H-imidazo-[4,5-b]pyridin-6-yl}benzenesulfonamide]
211 to 212 °C	21.4 nM	COc1ccnc(CCc2nc3cc(-c4ccc(S(=O)(=O)N(C)C)c(F)c4)cnc3[nH]2)c1 [compound 6, 2-Fluoro-4-{2-[2-(4-methoxypyridin-2-yl)ethyl]-3H-imidazo[4,5-b]pyridin-6-yl}-N,N-dimethyl-benzenesulfonamide]
